US12533343B2, “Method for preparing (−)-cibenzoline succinate” (CELLTRION, INC., priority 2018, dated 2026)

Experiments:
Assay type in all cases: physicochemical
[1] = Long-term storage stability test; details: for Assay by potentiometry (on dried basis) / Chiral purity by HPLC S-Isomer Content / Identification by IR / Loss on drying at 105° C. for 3 hours / Related substance by HPLC Single maximum unknown impurity / Related substance by HPLC Total impurity: 25±2° C., RH 60±5%
Method: And related substances was measured by HPLC under below conditions.
(§1) <Packing details>—Primary packing: (−)-Cibenzoline succinic acid salt obtained by Example 4 shall be packed in transparent LDPE bag, twist and tie with Strip seal. • Secondary packing: The above bag shall be kept in Black color LDPE bag, twist and tie with Strip seal. • Tertiary packing: The above bag shall be kept Triple laminated aluminum bag with heat seal. Keep this bag in HDPE drum and close with lid.

Particle size analysis = assay: Particle size analysis
Description: The powder sample was dispersed with a dispersion pressure of 2 bar.
The accompanying Table 9 (ref. 2019 USP 42 NF 37 Volume 4 physical tests <811> powder fineness) indicates particle size distribution associated with corresponding values.

Hygroscopicity = details: 25±1° C., 24 hours, 80±2% RH
Description: The hygroscopicity was to describe the water vapor uptake behavior of solid by mass changes.
The results of the hygroscopicity study shall be interpreted based on the criteria in Table 11 (ref. EUROPEAN PHARMACOPOEIA 9.0 volume 1 5.11. characters section in monographs).

[2] = Accelerated stability test; details: for Assay by potentiometry (on dried basis) / Chiral purity by HPLC S-Isomer Content / Identification by IR / Loss on drying at 105° C. for 3 hours / Related substance by HPLC Single maximum unknown impurity / Related substance by HPLC Total impurity: 40±2° C., RH 75±5%
Description: as §1

[3] = powder dispersed at 2 bar, listed as (−)-Cibenzoline succinic acid salt

In the case of `O=C(O)CCC(=O)O.c1ccc(C2(c3ccccc3)C[C@@H]2C2=NCCN2)cc1` [Example 4, (−)-Cibenzoline succinic acid salt], the “Assay by potentiometry (on dried basis)” value ([1]; 1-month) is reported as 99.9 % w/w, the “Chiral purity by HPLC S-Isomer Content” value ([1]; 1-month) is reported as 100.0 % Area normalization and the “Identification by IR” value ([1]; 1-month) is reported as “Complies”. For the same molecule, the “Loss on drying at 105° C. for 3 hours” value ([1]; 1-month) was 0.04 % w/w, the “Related substance by HPLC Single maximum unknown impurity” value ([1]; 1-month) was 0.01 % w/w and the “Related substance by HPLC Total impurity” value ([1]; 1-month) was 0.01 % w/w. The “Assay by potentiometry (on dried basis)” value ([1]; 2-month) was 100.1 % w/w, the “Chiral purity by HPLC S-Isomer Content” value ([1]; 2-month) was 100.0 % Area normalization and the “Identification by IR” value ([1]; 2-month) was “Complies”. For the same molecule, the “Loss on drying at 105° C. for 3 hours” value ([1]; 2-month) was 0.07 % w/w, the “Related substance by HPLC Single maximum unknown impurity” value ([1]; 2-month) was 0.01 % w/w and the “Related substance by HPLC Total impurity” value ([1]; 2-month) was 0.01 % w/w. The “Assay by potentiometry (on dried basis)” value ([1]; 3-month) was 100.2 % w/w, the “Chiral purity by HPLC S-Isomer Content” value ([1]; 3-month) was 100.0 % Area normalization and the “Identification by IR” value ([1]; 3-month) was “Complies”. The “Loss on drying at 105° C. for 3 hours” value ([1]; 3-month) was 0.14 % w/w, the “Assay by potentiometry (on dried basis)” value ([1]; 6-month) was 100.2 % w/w and the “Chiral purity by HPLC S-Isomer Content” value ([1]; 6-month) was 100.0 % Area normalization. For the same molecule, the “Identification by IR” value ([1]; 6-month) was “Complies”, the “Loss on drying at 105° C. for 3 hours” value ([1]; 6-month) was 0.18 % w/w and the “Assay by potentiometry (on dried basis)” value ([1]; Initial) was 100.1 % w/w. The “Chiral purity by HPLC S-Isomer Content” value ([1]; Initial) was 100.0 % Area normalization, the “Identification by IR” value ([1]; Initial) was “Complies” and the “Loss on drying at 105° C. for 3 hours” value ([1]; Initial) was 0.11 % w/w. The “Related substance by HPLC Single maximum unknown impurity” value ([1]; Initial) was 0.01 % w/w, the “Related substance by HPLC Total impurity” value ([1]; Initial) was 0.01 % w/w and the “change of (S)-form to (R)-form” value ([1]; long-term storage conditions) was “not changed to (R)-form”. The stability conclusion ([1]; long-term storage conditions) was “excellent stability”, the “white crystalline powder form over storage” value ([1]; six months, long-term storage conditions) was “uniformly maintained” and the “Classification (particle size)” value (Particle size analysis; USP <811> powder fineness) was “Very fine”. For the same molecule, the d10 (Particle size analysis; powder dispersed at 2 bar) was 15.2 μm, the d50 (Particle size analysis; powder dispersed at 2 bar) was 104 μm and the d90 (Particle size analysis; powder dispersed at 2 bar) was 265 μm. For the same molecule, the d50 (Particle size analysis; [3]) was 104.0 μm, the d90 (Particle size analysis; [3]) was 265.0 μm and the Mass change (Hygroscopicity) was 0.01%. The Hygroscopicity evaluation (Hygroscopicity; Ph. Eur. criteria) was “Non hygroscopic”, the “Assay by potentiometry (on dried basis)” value ([2]; 1-month) was 100.1 % w/w and the “Chiral purity by HPLC S-Isomer Content” value ([2]; 1-month) was 100.0 % Area normalization. The “Identification by IR” value ([2]; 1-month) was “Complies”, the “Loss on drying at 105° C. for 3 hours” value ([2]; 1-month) was 0.15 % w/w and the “Related substance by HPLC Single maximum unknown impurity” value ([2]; 1-month) was 0.01 % w/w. The “Related substance by HPLC Total impurity” value ([2]; 1-month) was 0.01 % w/w, the “Assay by potentiometry (on dried basis)” value ([2]; 2-month) was 100.3 % w/w and the “Chiral purity by HPLC S-Isomer Content” value ([2]; 2-month) was 100.0 % Area normalization. For the same molecule, the “Identification by IR” value ([2]; 2-month) was “Complies”, the “Loss on drying at 105° C. for 3 hours” value ([2]; 2-month) was 0.12 % w/w and the “Assay by potentiometry (on dried basis)” value ([2]; 3-month) was 100.1 % w/w. For the same molecule, the “Chiral purity by HPLC S-Isomer Content” value ([2]; 3-month) was 100.0 % Area normalization, the “Identification by IR” value ([2]; 3-month) was “Complies” and the “Loss on drying at 105° C. for 3 hours” value ([2]; 3-month) was 0.09 % w/w. For the same molecule, the “Assay by potentiometry (on dried basis)” value ([2]; 6-month) was 99.6 % w/w, the “Chiral purity by HPLC S-Isomer Content” value ([2]; 6-month) was 100.0 % Area normalization and the “Identification by IR” value ([2]; 6-month) was “Complies”. The “Loss on drying at 105° C. for 3 hours” value ([2]; 6-month) was 0.10 % w/w, the “Assay by potentiometry (on dried basis)” value ([2]; Initial) was 100.1 % w/w and the “Chiral purity by HPLC S-Isomer Content” value ([2]; Initial) was 100.0 % Area normalization. For the same molecule, the “Identification by IR” value ([2]; Initial) was “Complies”, the “Loss on drying at 105° C. for 3 hours” value ([2]; Initial) was 0.11 % w/w and the “Related substance by HPLC Single maximum unknown impurity” value ([2]; Initial) was 0.01 % w/w. The “Related substance by HPLC Total impurity” value ([2]; Initial) was 0.01 % w/w, the stability conclusion ([2]; accelerated conditions) was “excellent stability” and the “change of (S)-form to (R)-form” value ([2]; accelerated stability test section) was “not changed to (R)-form”. The “white crystalline powder form over storage” value ([2]; six months, accelerated conditions) was “uniformly maintained”.
